Experiments:
CCI-mice = test: Thermal hyperalgesia (plantar heat / Hargreaves test), paw withdrawal latency after chronic constriction injury; type: in vivo; conditions: for latency to paw withdrawal to a thermal stimulus: mean ± SEM, n = 5; for time-dependent effect on thermal paw withdrawal latency vs vehicle: 50 mg/Kg i.p., assessed weekly from 7 to 56 dpi, n = 15 (Fig 1)
Protocol: The chronic constriction injury (CCI) followed the procedure described elsewhere. Animals were anesthetized with sodium pentobarbital (50 mg/kg; i.p.), an incision was made in the right thigh, and the sciatic nerve was exposed. Two loose ligatures with 1 mm apart were then made around the nerve using the 6–0 poly-glycolic acid synthetic absorbable sutures. The incision was closed using 5–0 interrupted nylon sutures. A control group was included with sham surgery where the right sciatic nerve was exposed but not further manipulated.
For dose response studies, EGCG and the two synthetic EGCG derivatives compound 23 and compound 30 were administered by intra-peritoneal injection at 10, 30, 50 and 100 mg/Kg (n = 5 mice/compound/dose), 30 minutes after the CCI. To analyze the time-dependent effect EGCG and the two synthetic EGCG derivatives compound 23 and compound 30 were administered by intra-peritoneal injection at 50 mg/Kg (n = 15 mice/compound), 30 minutes after the CCI. Another set of animals were used to study the effect of 50 mg/kg of EGCG and the two synthetic EGCG derivatives compound 23 and compound 30 at 14 dpi (n = 15 mice/compound). In all cases, the administration was daily repeated during the first week. All compounds were dissolved in DMSO/saline solution (1:9; v/v), used as vehicle group.
To measure changes in thermal sensation we used the plantar heat test (Ugo Basile, Italy) as previously described. Briefly, mice were acclimated 5 days (15 min/day) prior to CCI. At 7, 14, 21, 28, 35, 42, 49 and 56 dpi, mice were enclosed in a clear Plexiglas box. After 15 min, during which the animals were provided with free exploration to habituate to the apparatus, infrared light beam was applied to the plantar surface of the […], and paw withdrawal latency was recorded in seconds. The infrared stimulus application automatically shut off at 30 seconds to avoid tissue damage. Four trials were measured randomly for right […] with at least 2 minutes between each trial.

NF-κB = test: Western blot of nuclear NF-κB levels in the dorsal horn of the spinal cord; type: in vivo, mice; conditions: 50 mg/Kg, 14 dpi
Protocol: (§1) Subcellular fractionation was obtained by differential centrifugation as described elsewhere. Briefly, tissue was homogenized in lysis buffer (10 mM Tris-HCl pH 7.5, 1 mM EDTA, 1 mM Na3VO4, 0.25 M sucrose, 2 mM PMSF, 1 μg/μL aprotinin, 1 μg/μL leupeptin, 2 mM sodium orthovanadate). The homogenate was centrifuged at 2,000 × g for 10 min at 4°C to separate the nuclei fraction (P1). The P1 was resuspended in lysis buffer. The resulting supernatant was centrifuged at 10,000×g for 15 min at 4°C to obtain a crude membrane fraction (P2). The P2 was resuspended and incubated in the lysis buffer containing 0.5% Triton X-100 for 15 min, and then centrifuged at 25,000 × g for 20 min to obtain the synaptosomal membrane fraction (P3). Finally, the P3 was resuspended in lysis buffer and centrifuged on a discontinuous sucrose gradient (0.8 M, 1 M and 1.2 M) at 150,000×g for 2 h. Synaptic plasma membrane (SPM) was collected from the 1:1.2 M interface and resuspended in 50 mM HEPES, 2 mM EDTA, 1 mM PMSF, 10 μg/ml aprotinin, 1 μg/ml leupeptin and 2 mM sodium orthovanadate.
(§2) Western blotting was performed as previously described. The following primary antibodies were used: anti-FASN (1:1000, BD Bioscience, San Jose, CA); anti-TNF-α, anti-IL-1β, anti-IL-6 and anti-NFκB (all 1:500, Santa Cruz Biotechnology, Santa Cruz, CA); anti-phosphoNMDAR2B (Tyr1472) (1:2000, Affinity Bioreagents, Golden, CO) and anti-NMDAR2B (1:1000, Chemicon, Temecula, CA). Loading control was performed by reprobing the membranes with anti-actin (1:10,000; MP Biochemicals, Aurora, OH), anti-NeuN (1:1,000; Chemicon) or anti-N-cadherin (1:1000, BD Bioscience). Membranes were incubated with the corresponding horseradish peroxidase-conjugated antibody (1:2,000; Promega, Madison, WI). Immunoreactive bands were visualized using the Western Blotting Luminol Reagent and quantified by a computer-assisted densitometer (Gel-Pro Analyzer, version 4, Media Cybernetics).

NMDAR2B = test: Western blot of NMDAR2B in the synaptic plasma membrane fraction of the dorsal horn; type: in vivo, mice; conditions: 50 mg/Kg, 56 dpi
Protocol: as §1, §2

[1] = Serum stability study, human serum; type: in vitro ADME; conditions: 37°C, 75% serum, 0.5 mM compound; for half-life at 0.5 mM: human serum (75% final serum content), read-out: half-life (t1/2) (converted)
Protocol: Peptide stabilities were assayed in diluted serum as previously described. Human serum (Sigma, S7023) or mouse serum (Europa Bioproducts, EQSM-0100) were incubated at 37°C for 10 min. The assay was initiated upon the addition of the test compound solved in PBS to the serum (75% final serum content) for a final compound concentration of 0.5 mM. Then, 500 µL aliquots of the incubations were taken for the following time points: 0, 15, 30, 60, 120 and 240 min. The aliquots were mixed with 750 µL of cold acetonitrile (ACN) and incubated at 4°C for 10 min to precipitate serum proteins. The supernatant was collected for each sample after centrifugation at 39,000 g for 10 min and were immediately analyzed by high performance liquid chromatography-mass spectrometry (HPLC-MS).

[2] = Toxicity studies: body weight, food and fluid intake, histological examination; type: in vivo, mice; conditions: vs control animals (data not shown)
FASN = test system: FASN; set-up: method as in PMID 22559865; conditions: previously reported; cited from earlier work
[3] = set-up: method as in PMID 20008854, PMID 22559865, PMID 17902053; conditions: previously published toxicity studies; cited from earlier work
TNF-α, IL-1β and IL-6 = test: Western blot of cytokine protein levels in the dorsal horn of the spinal cord; type: in vivo, mice; conditions: 50 mg/Kg, 14 dpi
Protocol: Mice (n = 5 per group) were sacrificed with sodium pentobarbital (90 mg/kg; i.p.) at 14 and 56 dpi and spinal cord segments distal to T12 vertebra were quickly removed and frozen. For total protein extraction, the dorsal horn of the spinal cord was homogenized in modified RIPA buffer (50 mM Tris–HCl pH 7.5, 1% Triton X-100, 0.5% sodium deoxycholate, 0.2% SDS, 100 mM NaCl, 1 mM EDTA, 2 mM PMSF, 1 μg/μL aprotinin, 1 μg/μL leupeptin and 2 mM sodium orthovanadate).
as §2

[4] = 10 mg/Kg i.p. daily first week post-CCI, 7 dpi
[5] = 10 mg/Kg i.p. daily first week post-CCI, 21 dpi
[6] = 30 mg/Kg i.p. daily first week post-CCI, 7 dpi
[7] = 30 mg/Kg i.p. daily first week post-CCI, 21 dpi
[8] = 50 mg/Kg i.p. daily first week post-CCI, 7 dpi
[9] = 50 mg/Kg i.p. daily first week post-CCI, 21 dpi
[10] = 100 mg/Kg i.p. daily first week post-CCI, 7 dpi
[11] = 100 mg/Kg i.p. daily first week post-CCI, 21 dpi

half-life at 0.5 mM [1] [h]	Compound	latency to paw withdrawal to a thermal stimulus (CCI-mice; [4]) [s]	latency to paw withdrawal to a thermal stimulus (CCI-mice; [5]) [s]	latency to paw withdrawal to a thermal stimulus (CCI-mice; [6]) [s]	latency to paw withdrawal to a thermal stimulus (CCI-mice; [7]) [s]	latency to paw withdrawal to a thermal stimulus (CCI-mice; [8]) [s]	latency to paw withdrawal to a thermal stimulus (CCI-mice; [9]) [s]	time-dependent effect on thermal paw withdrawal latency vs vehicle (CCI-mice)	latency to paw withdrawal to a thermal stimulus (CCI-mice; [10]) [s]	latency to paw withdrawal to a thermal stimulus (CCI-mice; [11]) [s]	nuclear NF-κB levels (NF-κB)	protein levels of NMDAR2B in the synaptic plasma membrane (SPM) (NMDAR2B)	histological examination of liver, heart, kidney lung and brain [2]	% of FASN inhibition (FASN) [%]	changes on body weight versus the control group [3]	protein levels of TNF-α, IL-1β and IL-6 compared to vehicle group (TNF-α, IL-1β and IL-6)	half-life (t1/2) [1]
1.4	O=C(Oc1cccc2c(OC(=O)c3cc(O)c(O)c(O)c3)cccc12)c1cc(O)c(O)c(O)c1 [Compound 23, 1,5-Bis [(3,4,5-trihydroxybenzoyl)oxy] naphthalene]	4.07 ± 0.31	3.89 ± 0.43	4.57 ± 0.29	3.77 ± 0.59	4.38 ± 0.3	3.93 ± 0.24	did not detect differences at any time point analyzed	4.41 ± 0.27	3.71 ± 0.29	no changes	did not result in changes	no microscopic evidence of drug induces toxicity	30	neither 23 nor 30 caused changes on body weight		
1.9	O=C(Oc1ccc(-c2ccc(OC(=O)c3cc(O)c(O)c(O)c3)cc2)cc1)c1cc(O)c(O)c(O)c1 [Compound 30, 4,4′-Bis [(3,4,5-trihydroxybenzoyl)oxy]-1,1′-biphenyl]	3.71 ± 0.39	4.11 ± 0.51	3.93 ± 0.37	4.33 ± 0.57	4.31 ± 0.3	7.61 ± 0.67	augmentation in the paw withdrawal latency from 14 to 56 dpi	4.79 ± 0.44	6.49 ± 0.53	reduced	specific decrease	no microscopic evidence of drug induces toxicity	90	neither 23 nor 30 caused changes on body weight	reduced	
	epigallocatechin-3-gallate [EGCG]	3.93 ± 0.33	3.83 ± 0.23	5.01 ± 0.35	4.28 ± 0.45	13.01 ± 1.02	8.58 ± 0.9	increase in paw withdrawal latency in CCI-mice treated with EGCG from 7 to 21 dpi	9.38 ± 0.66	6.15 ± 0.42	reduced	did not result in changes				reduced	< 0,1 h
